pIC50: −log10 of the molar value.
How the values were obtained:
[1] = system: SAM in HCT116 human colon carcinoma cell line engineered to delete the MTAP gene (MTAP −/−); assay: Cellular assay of target engagement (SAM) by LC-MS/MS; format: cell-based; conditions: Homo sapiens, HCT-116, 72 h, IC50 score, read-out: Cell 72 h SAM Inhibition (MTAP −/−; Example 276)
Method in brief: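 Intracellular SAM, the MAT2A product, was measured by quantitative LC-MS/MS against a d3-SAM standard in methanol/acetic acid extracts. Extracts came from HCT116 MTAP −/− cells exposed for 72 h at 37 °C to a ten-point, threefold dilution series of compound, added one day after seeding.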

HCT116 MTAP+/+ = assay: Inhibition of cellular proliferation (Cell Titer Glo), HCT116 MTAP+/+; format: cell-based, human; conditions: Homo sapiens, HCT-116, 96 h, 4 days, IC50 score, read-out: 4 Day Relative Growth Inhibition (MTAP +/+; Example 277)
Method in brief: (§1)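 Proliferation was read as ATP luminescence (Cell Titer Glo) after a 4-day, 37 °C exposure of HCT116 cells differing only in MTAP deletion status. Dosing was 10 points, 3-fold steps, added 24 h post-plating; signal minus blank, relative to 0.2% DMSO control wells, was plotted against log molar concentration.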

HCT116 MTAP−/− = assay: Inhibition of cellular proliferation (Cell Titer Glo), HCT116 MTAP−/−; format: cell-based, human; conditions: Homo sapiens, HCT-116, 96 h, 4 days, IC50 score, read-out: 4 Day Relative Growth Inhibition (MTAP −/−; Example 277)
Method in brief: as §1

MAT2A homodimer = molecular target: T1, MAT2A homodimer (Homo sapiens, UniProt P31153); assay: Biochemical assay: inhibition of MAT2A (phosphate release, PiColorLock Gold); conditions: MAT2A IC50 score; read-out: Enzyme Inhibition (Example 275)
T1 construct: inferred from Ni sepharose purification and imidazole elution; made in house; host or cells: Sf9 insect cells, recombinant baculovirus (Bac to Bac, pFASTBAC1)
Method in brief: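 Phosphate formed alongside SAM was read with PiColorLock Gold and quantified against a potassium phosphate standard curve. Reactions ran 60 min at 25 °C after adding a substrate mix of 500 μM ATP and 400 μM L-methionine (mix concentrations). Compound had first been preincubated 60 min with recombinant Sf9-derived MAT2A homodimer ([…]) in pH 8.0 Tris buffer containing MgCl2, KCl, EDTA and BSA.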

T1 sequence (P31153 whole entry): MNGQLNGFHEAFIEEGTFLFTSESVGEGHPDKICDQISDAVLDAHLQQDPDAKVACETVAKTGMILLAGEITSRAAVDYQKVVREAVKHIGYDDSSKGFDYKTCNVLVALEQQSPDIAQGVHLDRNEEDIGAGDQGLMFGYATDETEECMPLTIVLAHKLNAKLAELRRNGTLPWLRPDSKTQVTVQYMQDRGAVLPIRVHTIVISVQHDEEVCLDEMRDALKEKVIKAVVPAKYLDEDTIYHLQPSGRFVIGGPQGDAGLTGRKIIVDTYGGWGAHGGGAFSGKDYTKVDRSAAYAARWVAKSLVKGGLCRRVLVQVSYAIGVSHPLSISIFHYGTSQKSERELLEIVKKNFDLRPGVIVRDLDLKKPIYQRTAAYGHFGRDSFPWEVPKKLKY

Compound	pIC50 [1]	pIC50 (HCT116 MTAP+/+)	pIC50 (HCT116 MTAP−/−)	pIC50 (MAT2A homodimer)
CCOc1nc2c(-c3ccc(Cl)cc3)c(=O)n(-c3ccc4nn(C)cc4c3)cc2cc1C [Example 134-A]	> 7.00	< 5.00	> 7.00	> 7.00
CCOc1ccc2cn(-c3ccc4ncn(C)c4c3)c(=O)c(-c3ccc(NC)nc3)c2n1 [Example 111-A]	> 7.00	5.00 to 7.00	> 7.00	> 7.00
CCn1cc2cc(-n3cc4cnc(NCC(F)(F)F)nc4c(-c4ccc(OC(F)F)cc4)c3=O)ccc2n1 [Example 152, 8-(4-(difluoromethoxy)phenyl)-6-(2-ethyl-2H-indazol-5-yl)-2-((2,2,2-trifluoroethyl)amino)pyrido[4,3-d]pyrimidin-7(6H)-one]	> 7.00	< 5.00	> 7.00	> 7.00
Cc1c2cc(-n3cc4ccc(NCC(F)(F)F)nc4c(-c4ccc(Cl)cc4)c3=O)ccc2nn1C [Example 237, 8-(4-chlorophenyl)-6-(2,3-dimethyl-2H-indazol-5-yl)-2-(2,2,2-trifluoroethylamino)-1,6-naphthyridin-7(6H)-one]	> 7.00	< 5.00	> 7.00	> 7.00
Cn1cnc2ccc(-n3cc4ccc(OCC(F)(F)F)nc4c(-c4ccc(C(F)(F)F)nc4)c3=O)cc21 [Example 128-A]	> 7.00	5.00 to 7.00	> 7.00	> 7.00
CCOc1ccc2cn(-c3ccc4ncccc4c3)c(=O)c(-c3ccc(Cl)cc3)c2n1 [Example 243, 8-(4-chlorophenyl)-2-ethoxy-6-(quinolin-6-yl)-1,6-naphthyridin-7(6H)-one]	> 7.00	< 5.00	> 7.00	> 7.00
Cn1cc2cc(-n3cc4cnc(NCC(F)F)nc4c(-c4ccc(Cl)cc4)c3=O)ccc2n1 [Example 102-A]	> 7.00	5.00 to 7.00	> 7.00	> 7.00
COc1ccc(-n2cc3ccc(NCC(F)(F)F)nc3c(-c3ccc(OC(F)F)cc3)c2=O)cc1 [Example 241, 8-(4-(difluoromethoxy)phenyl)-6-(4-methoxyphenyl)-2-(2,2,2-trifluoroethylamino)-1,6-naphthyridin-7(6H)-one]	> 7.00	5.00 to 7.00	> 7.00	> 7.00
Cn1cc2cc(-n3cc4ncc(OCC(F)F)nc4c(-c4ccc(OC(F)(F)F)nc4)c3=O)ccc2n1 [Example 143-A]	> 7.00	5.00 to 7.00	> 7.00	> 7.00
CCOc1ccc2cn(-c3ccc4nn(C)cc4c3)c(=O)c(-c3ccc(-c4nc[nH]n4)cc3)c2n1 [Example 222, 8-(4-(1H-1,2,4-triazol-3-yl)phenyl)-2-ethoxy-6-(2-methyl-2H-indazol-5-yl)-1,6-naphthyridin-7(6H)-one]	> 7.00	< 5.00	5.00 to 7.00	> 7.00
CCOc1ccc2cn(-c3ccc4nn(C)cc4c3)c(=O)c(-c3ccc(-c4c[nH]cn4)cc3)c2n1 [Example 224, 8-(4-(1H-imidazol-4-yl)phenyl)-2-ethoxy-6-(2-methyl-2H-indazol-5-yl)-1,6-naphthyridin-7(6H)-one]	6.00 to 7.00	< 5.00	< 5.00	> 7.00
Cn1cc2cc(-n3cc4ccc(SCC(F)(F)F)nc4c(-c4ccc(Cl)cc4)c3=O)ccc2n1 [Example 209, 8-(4-chlorophenyl)-6-(2-methyl-2H-indazol-5-yl)-2-((2,2,2-trifluoroethyl)thio)-1,6-naphthyridin-7(6H)-one]	> 7.00	< 5.00	> 7.00	> 7.00
CCOc1cnc2cn(-c3ccc(OC)cc3)c(=O)c(-c3ccc(OC(F)F)cc3)c2n1 [Example 150-A]	> 7.00	5.00 to 7.00	5.00 to 7.00	> 7.00
CCOc1ccc2cn(-c3ccc4nn(C)cc4c3)c(=O)c(-c3ccc(C(F)F)nc3)c2n1 [Example 216, 8-(6-(difluoromethyl)pyridin-3-yl)-2-ethoxy-6-(2-methyl-2H-indazol-5-yl)-1,6-naphthyridin-7(6H)-one]	> 7.00	5.00 to 7.00	> 7.00	> 7.00
COc1ccc(-n2cc3cnc(NCC(F)(F)F)nc3c(-c3ccc(C4CC4)cc3)c2=O)cc1 [Example 167, 8-(4-cyclopropylphenyl)-6-(4-methoxyphenyl)-2-((2,2,2-trifluoroethyl)amino)pyrido[4,3-d]pyrimidin-7(6)-one]	6.00 to 7.00	< 5.00	5.00 to 7.00	> 7.00
O=c1c(-c2ccc(Br)cc2)c2nc(NCC(F)(F)F)ncc2cn1-c1ccc2ncccc2c1 [Example 180, 8-(4-bromophenyl)-6-(quinolin-6-yl)-2-((2,2,2-trifluoroethyl)amino)pyrido[4,3-d]pyrimidin-7(6H)-one]	> 7.00	< 5.00	> 7.00	> 7.00
COc1ccc(-c2c(=O)n(-c3ccc4c(c3)OCCO4)cc3cnc(NCC(F)(F)F)nc23)cc1 [Example 177, 6-(2,3-dihydrobenzo[b][1,4]dioxin-6-yl)-8-(4-methoxyphenyl)-2-((2,2,2-trifluoroethyl)amino)pyrido[4,3-d]pyrimidin-7(6H)-one]	> 7.00	< 5.00	5.00 to 7.00	> 7.00
CCOc1cnc2cn(-c3ccc4nn(C)cc4c3)c(=O)c(-c3ccc(OC(F)F)nc3)c2n1 [Example 149-A]	> 7.00	5.00 to 7.00	5.00 to 7.00	> 7.00
CCOc1ccc2cn(-c3ccc4ncn(C)c4c3)c(=O)c(-c3ccc(C)nc3)c2n1 [Example 132-A]	> 7.00	5.00 to 7.00	> 7.00	> 7.00
Cn1cc2cc(-n3cc4ccc(OCC(F)(F)F)nc4c(-c4ccc(OC(F)F)cc4)c3=O)ccc2n1 [Example 256, 8-(4-(difluoromethoxy)phenyl)-6-(2-methyl-2H-indazol-5-yl)-2-(2,2,2-trifluoroethoxy)-1,6-naphthyridin-7(6H)-one]	> 7.00	5.00 to 7.00	5.00 to 7.00	> 7.00
CCOc1cc(C)c2cn(-c3ccc4nn(C)cc4c3)c(=O)c(-c3ccc(Cl)cc3)c2n1 [Example 122-A]	> 7.00	5.00 to 7.00	> 7.00	> 7.00
COc1ccc(-c2c(=O)n(-c3ccc4c(c3)CCO4)cc3cnc(NCC(F)(F)F)nc23)cc1 [Example 147, 6-(2,3-dihydrobenzofuran-5-yl)-8-(4-methoxyphenyl)-2-((2,2,2-trifluoroethyl)amino)pyrido[4,3-d]pyrimidin-7(6H)-one]	6.00 to 7.00	< 5.00	5.00 to 7.00	> 7.00
CCSc1ccc2cn(-c3ccc4nn(C)cc4c3)c(=O)c(-c3ccc(Cl)cc3)c2n1 [Example 259, 8-(4-chlorophenyl)-2-(ethylthio)-6-(2-methyl-2H-indazol-5-yl)-1,6-naphthyridin-7(6H)-one]	> 7.00	< 5.00	> 7.00	> 7.00
CCOc1ncc2cn(-c3ccc4nn(C)cc4c3)c(=O)c(-c3ccc(OC(F)F)cc3)c2n1 [Example 272, 8-(4-(difluoromethoxy)phenyl)-2-ethoxy-6-(2-methyl-2H-indazol-5-yl)pyrido[4,3-d]pyrimidin-7(6H)-one]	> 7.00	< 5.00	5.00 to 7.00	> 7.00
CCOc1ccc2cn(-c3ccc4nnn(C)c4c3)c(=O)c(-c3ccc(OC(F)F)cc3)c2n1 [Example 252, 8-(4-(difluoromethoxy)phenyl)-2-ethoxy-6-(1-methyl-1H-benzo[d][1,2,3]triazol-6-yl)-1,6-naphthyridin-7(6H)-one]	> 7.00	5.00 to 7.00	5.00 to 7.00	> 7.00
CCOc1ccc2cn(-c3ccc4ncn(C)c4c3)c(=O)c(-c3ccc(OC(F)F)cc3)c2n1 [Example 253, 8-(4-(difluoromethoxy)phenyl)-2-ethoxy-6-(1-methyl-1H-benzo[d]imidazol-6-yl)-1,6-naphthyridin-7(6H)-one]	> 7.00	5.00 to 7.00	> 7.00	> 7.00
CCOc1ccc2cn(-c3ccc4nn(C)cc4c3)c(=O)c(-c3ccc(C(F)(F)F)cc3)c2n1 [Example 215, 2-ethoxy-6-(2-methyl-2H-indazol-5-yl)-8-(4-(trifluoromethyl)phenyl)-1,6-naphthyridin-7(6H)-one]	> 7.00	5.00 to 7.00	> 7.00	> 7.00

Source: patent publication US11524960B2, “Heterobicyclic inhibitors of MAT2A and methods of use for treating cancer” (AGIOS PHARMACEUTICALS, INC., priority 2018, dated 2022)
